Laboratory results from patent publication US9802985B2, “Pharmaceutical composition for treatment of the pulmonary form of altitude sickness caused by lack of oxygen and reduced air pressure” (APEPTICO FORSCHUNG UND E[…], priority 2012, dated 2017).
“Also recorded” adds a separate entry of the source. No end group written: not given here.

Assays:
[1] = target: T1, amiloride-sensitive epithelial sodium ion channel (ENaC) (Homo sapiens, UniProt P37088+P51168+P51170); test: whole cell patch clamp test with A549 cells (Example 3); format: cell-based; conditions: for effect on the Na+ flow / ENaC (in words) / effect on the Na+ flow (in words): whole cell patch clamp; for effect on the Na+ flow / ENaC (in words): 300 nM in bath solution, n=3
T1 construct: the human alveolar epithelial cell line A549 was used; endogenous in cells; host or cells: A549 (human alveolar epithelial cell line)
T1 sequence (P51168 whole entry): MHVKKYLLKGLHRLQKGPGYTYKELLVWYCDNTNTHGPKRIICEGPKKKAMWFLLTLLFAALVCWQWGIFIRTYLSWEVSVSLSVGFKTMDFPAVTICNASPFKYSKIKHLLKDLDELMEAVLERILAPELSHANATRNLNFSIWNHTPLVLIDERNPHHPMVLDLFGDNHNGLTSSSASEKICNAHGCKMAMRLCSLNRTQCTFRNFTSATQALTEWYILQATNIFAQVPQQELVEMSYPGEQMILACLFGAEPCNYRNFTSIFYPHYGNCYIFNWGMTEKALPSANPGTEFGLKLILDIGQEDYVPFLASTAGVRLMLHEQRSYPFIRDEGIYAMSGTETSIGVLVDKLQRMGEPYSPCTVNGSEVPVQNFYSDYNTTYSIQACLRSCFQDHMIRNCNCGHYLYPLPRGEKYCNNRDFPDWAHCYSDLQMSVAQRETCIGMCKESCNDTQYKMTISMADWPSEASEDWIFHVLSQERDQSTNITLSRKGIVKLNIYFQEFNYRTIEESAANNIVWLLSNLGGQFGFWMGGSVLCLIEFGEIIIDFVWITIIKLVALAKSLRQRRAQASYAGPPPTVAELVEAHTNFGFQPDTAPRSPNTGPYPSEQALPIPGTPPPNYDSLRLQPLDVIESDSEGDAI
T1 sequence (P37088 whole entry): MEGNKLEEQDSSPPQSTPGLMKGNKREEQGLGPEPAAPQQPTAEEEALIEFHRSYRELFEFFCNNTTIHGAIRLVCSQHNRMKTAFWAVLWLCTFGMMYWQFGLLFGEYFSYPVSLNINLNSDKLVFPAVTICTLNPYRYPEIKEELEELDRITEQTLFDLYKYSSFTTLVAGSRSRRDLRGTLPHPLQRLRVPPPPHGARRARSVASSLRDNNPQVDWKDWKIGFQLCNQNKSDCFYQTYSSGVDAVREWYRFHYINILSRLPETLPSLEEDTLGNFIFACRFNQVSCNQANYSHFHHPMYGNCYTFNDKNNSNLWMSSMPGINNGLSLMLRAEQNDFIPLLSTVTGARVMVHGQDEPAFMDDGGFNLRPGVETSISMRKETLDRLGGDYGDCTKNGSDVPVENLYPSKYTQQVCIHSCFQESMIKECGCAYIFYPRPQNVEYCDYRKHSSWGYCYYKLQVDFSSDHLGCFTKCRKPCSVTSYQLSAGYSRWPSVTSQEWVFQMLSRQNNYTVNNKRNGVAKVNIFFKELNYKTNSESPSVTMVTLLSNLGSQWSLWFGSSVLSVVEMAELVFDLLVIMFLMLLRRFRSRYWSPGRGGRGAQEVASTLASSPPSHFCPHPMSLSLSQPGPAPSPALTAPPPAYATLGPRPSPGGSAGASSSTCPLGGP
T1 sequence (P51170 whole entry): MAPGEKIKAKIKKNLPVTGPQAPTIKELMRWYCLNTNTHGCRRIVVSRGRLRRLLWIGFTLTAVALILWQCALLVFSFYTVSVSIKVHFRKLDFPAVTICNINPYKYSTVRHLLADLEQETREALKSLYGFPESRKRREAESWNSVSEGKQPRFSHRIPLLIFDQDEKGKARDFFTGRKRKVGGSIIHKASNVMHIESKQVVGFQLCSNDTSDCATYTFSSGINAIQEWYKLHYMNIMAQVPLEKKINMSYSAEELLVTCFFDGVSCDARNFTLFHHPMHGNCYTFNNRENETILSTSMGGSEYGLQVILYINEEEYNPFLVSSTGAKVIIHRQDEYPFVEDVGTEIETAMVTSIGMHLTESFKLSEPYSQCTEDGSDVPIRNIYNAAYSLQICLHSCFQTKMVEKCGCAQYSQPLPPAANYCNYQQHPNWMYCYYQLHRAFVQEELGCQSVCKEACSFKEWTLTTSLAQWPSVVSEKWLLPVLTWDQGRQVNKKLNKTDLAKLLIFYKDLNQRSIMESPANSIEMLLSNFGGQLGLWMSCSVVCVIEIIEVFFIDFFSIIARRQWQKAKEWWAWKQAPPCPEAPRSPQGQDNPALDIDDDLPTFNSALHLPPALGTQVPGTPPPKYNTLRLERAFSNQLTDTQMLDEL
Text: According to patent application EP 2 009 023 A1, the so-called transepithelial electrical resistance (TEER) test was used for the screening of anti-lung oedema active ingredient candidates. The “TEER test” is not an established test for the prediction of fluid clearance in lung oedemas (this test can not be found in the relevant scientific literature and also has no relevance with regard to the cells being used (Calu-3 cells) in a model for gas exchange in the human lung). In the present example—in addition to the peptide according to the invention—the peptides […], […] and (cyclized) […] were investigated by means of a whole cell patch clamp assay, an established methodology for the measurement of ion movement over the cell membranes and especially for the measuring of the sodium transport over the cell membrane of alveolar epithelial cells (Eaton et al., Fed. Proc. 45 (1986), 2707; Hamill et al., Pflugers Arch. 391 (1981) 85-100. Here it was to be tested whether or not the peptides can activate the amiloride-sensitive epithelial sodium flow in lung cells.
The whole cell patch clamp test using A549 cells took place as described in Hazemi et al. (J. Med. Chem. 53 (2010), 8021-8029). […] In cases where an increase of the flow after addition of a given peptide was observed, an amiloride solution (to […] final concentration) was added to the bath solution—after the flow reached a stationary state —, in order to differentiate the amiloride-sensitive from the amiloride-insensitive flow. The amiloride-sensitive flow was then calculated by subtracting the flow value after addition of amiloride (amiloride-insensitive) from the flow value of the stationary state before the addition of amiloride. For each peptide, three experiments were carried out in different A549 cells (n=3).

[2] = system: pulmonary form of altitude sickness in rats; test: experimental rat model of the pulmonary form of altitude sickness (physical activity under reduced oxygen and air pressure); format: in vivo, rat (Sprague Dawley)
Text: Physical exertion under conditions of reduced oxygen and air pressure, such as occur at high altitudes, are the 2 main factors which lead to the development of the pulmonary form of altitude sickness. Therefore, the selected rat model, in which the rats carried out physical activity under conditions of reduced oxygen and reduced air pressure, simulates a physically strenuous ascent to high altitudes. This takes place without carrying out a prior acclimatization. This corresponds to the scenario such as is to be found in the case of mountaineers who suffer from the pulmonary form of altitude sickness at high altitudes. In the model which was used, the rats develop the typical symptoms for the pulmonary form of altitude sickness, as is to be read in the “intensity of the pulmonary form of altitude sickness”, the increased protein concentration in the lung fluid and the histological appearance of the lung tissue. It is further to be noted that the lung damage in this model is not caused by administration of endotoxins, microbes or other agents which are damaging to the lung. […] Also, no specific strain of rat was used for this experiment. Therefore, this rat model is well suited to investigate a medicament for the treatment of the pulmonary form of altitude sickness.
Laboratory rats (Sprague Dawley rats) carried out physical activity through external stimulation for 48 hours under conditions of reduced oxygen and air pressure. Here, the air pressure was reduced to a value below 430 Torr, so that a height of over 4500 m was simulated. A prior acclimatization of the rats to the height of over 4500 m was not carried out. During this time, the rats were able to undertake a 15-20 minute pause every 4 hours in order to take in water and food. […] The lungs were then removed and the intensity of the pulmonary form of altitude sickness was determined (FIG. 1), the protein content in the lung fluid was determined (FIG. 2) and the histological appearance of the lung tissue was determined (FIG. 3).

[3] = system: interleukin-6 (IL-6) secretion in human full blood; test: ex vivo release of interleukin-6 from fresh human full blood cultures (ELISA); format: cell-based; conditions: for Concentration of IL-6: human full blood, 24 hours, n=5
Method: In this study, fresh full blood was used; this is a recognized prediction model for the assessment of the inflammatory reaction in vivo.
The aim of this study was to determine the pro-inflammatory signal capacity of the peptide SEQ ID NO: 1.
Full blood (FB) cultures were carried out by pipetting 1 ml FB in depressions of 24-well plates. In each experiment, unstimulated and stimulated control cultures were included.
If possible, the substances and stimulants to be examined were always used in the same volume in each well in a given experiment, which is not greater than 10% of the total volume in a well. Unstimulated controls took place with PBS. Volume adjustment and dilutions for different treatments were likewise carried out with PBS.
The content of each well was mixed and the plates were incubated at 37° C. and 5% CO2 for 24 hours. After incubation, the content of each well was transferred into a fresh 1.5 ml microtube and centrifuged at 8000 to 9000×g for 15 minutes. The supernatant of each sample was divided individually to two 1.5 ml reaction vessels and stored at −20° C. until use.
Interleukin-6 was quantified by means of a specific ELISA (Human IL-6 ELISA-Set, BD Biosciences, Cat. No. 555220) using an anti-human-IL-6 antibody as capture antibody, a biotinylated anti-human IL-6 detection antibody, avidin horseradish peroxidise conjugate as enzyme reagent and recombinant IL-6 as standard. Absorption measurement at 450 nm was carried out with the Packard Fusion reader.
The results of each plate were stored and evaluated with the fusion data analysis software. […]

[4] = target: T2, amiloride-sensitive sodium ion channel (ENaC) (Homo sapiens, UniProt P37088+P51168+P51170); test: whole cell patch clamp on A549 cells, amiloride-sensitive sodium ion flow, EC50 (Example 4); format: cell-based
T2 construct: Macroscopic sodium ion flows were derived from human lung epithelial cells A549; endogenous in cells; host or cells: A549 (human lung epithelial cells)
T2 sequence (P37088 whole entry): as the sequence (P37088 whole entry) above
T2 sequence (P51168 whole entry): as the sequence (P51168 whole entry) above
T2 sequence (P51170 whole entry): as the sequence (P51170 whole entry) above
Text: The activity of the individual peptides is indicated as EC50 (in nM).

[5] = intratracheal 100, 300 and 600 μg/rat (especially 300 μg), 4 hours after administration

For N=C(N)NC(=O)c1nc(Cl)c(N)nc1N [amiloride], the “Na+ flow after subsequent addition of amiloride” value ([1]; after AP301 240 nM, amiloride 100 mM in bath solution) was 36 pA.
In the case of TKPIELGPDEPKAV, the “effect on the Na+ flow / ENaC (in words)” value [1] is reported as “no activating effect; also recorded: no effect on the flow; also recorded: none of the other three peptides had an influence on the flow”.
With QRETPEGAEAKPWY the “effect on the Na+ flow / ENaC (in words)” value [1] was “no activating effect; also recorded: no effect on the flow; also recorded: none of the other three peptides had an influence on the flow”.
For “CGTKPIELGPDEPKAVC (not fully specified (bridges); also: cyclic)”, the “effect on the Na+ flow / ENaC (in words)” value [1] was “no activating effect; also recorded: no effect on the flow; also recorded: none of the other three peptides had an influence on the flow”.
In the case of C[C@@H]1NC(=O)CNC(=O)[C@H](CCC(=O)O)NC(=O)[C@@H]2CCCN2C(=O)[C@H]([C@@H](C)O)NC(=O)[C@H](CCC(=O)O)NC(=O)[C@H](CCCNC(=N)N)NC(=O)[C@H](CCC(N)=O)NC(=O)CNC(=O)[C@@H](N)CSSC[C@@H](C(=O)O)NC(=O)[C@H](Cc2ccc(O)cc2)NC(=O)[C@H](Cc2c[nH]c3ccccc23)NC(=O)[C@@H]2CCCN2C(=O)[C@H](CCCCN)NC(=O)[C@H](C)NC(=O)[C@H](CCC(=O)O)NC1=O [SEQ ID NO: 1], the “amiloride-sensitive Na+ flow after addition of the peptide” value ([1]; 240 nM, increased from 50 pA, flow minus amiloride-insensitive flow) is reported as 1037 pA, the “effect on the Na+ flow (in words)” value ([1]; 240 nM in bath solution) is reported as “induced an increase of the sodium flow over that of the control value” and the “effect on the Na+ flow (in words)” value ([1]; 240 nM in bath solution, listed as AP301) is reported as “immediate intensifying effect”. The “active Na+ flow after addition of the peptide (maximum)” value ([1]; whole cell, clamped at -100 mV, 240 nM in bath solution, control value 86 pA±5 pA) was 1073±15 pA, the “histological appearance of lung tissue” value ([2]; 4 hours after intratracheal administration) was “comparable with healthy lung tissue of the control rats” and the “intensity of the pulmonary form of altitude sickness” value [2, 5] was “led to reduction of the intensity of the pulmonary form of altitude sickness”. The “protein concentration in the lung fluid” value [2, 5] was “led to reduction of the protein concentration in the lung fluid”, the “induction of IL-6 secretion (in words)” value ([3]; human full blood cultures of five healthy donors, all tested concentrations (10 μg/ml to 1 ng/ml)) was “did not induce any detectable amount of IL-6 secretion; also recorded: induced no detectable level of IL-6” and the “TNF receptor binding activity (concluded from absent IL-6 release)” value ([3]; human full blood ex vivo model) was “does not have TNF receptor binding activity”. The “Concentration of IL-6” value [3] was “less than 0.5 pg/ml”, the “Concentration of IL-6” value ([3]; test concentration 1 ng/ml) was “less than 0.5 pg/ml” and the “Concentration of IL-6” value ([3]; test concentration 3 ng/ml) was “less than 0.5 pg/ml”. For the same compound, the “Concentration of IL-6” value ([3]; test concentration 1 mg/ml) was “less than 0.5 pg/ml”.
CGQREAPAGAAAKPWYC [SEQ ID NO: 19] was tested, and the “EC50 (nM), cellular amiloride-sensitive sodium ion flow” value ([4]; A549 cells, whole cell patch clamp, concentration at 50% of maximum increase of flow) was “No activity” and the “activity on the amiloride-sensitive sodium ion channel (in words)” value ([4]; A549 lung cells) was “not active”.
